Assay [1] deals with CDK2/Cyclin A (Homo sapiens, UniProt P24941). Nature of the assay: Inhibition of CDK2/Cyclin A Retinoblastoma Kinase Activity. It is filed as biochemical. The note with it: for inhibition at 0.05 µM: read-out: % inhibition of CDK2 (@ 0.05 μM), compound at 0.05 μM; for Ki: apparent Ki, CDK2/proteolyzed cyclin A, Rb fragment substrate, 25 μM ATP. The gist of the method: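 Human CDK2, baculovirus/insect-cell expressed, complexed with proteolyzed cyclin A (10 nM or 19 nM CDK2) phosphorylates an Rb fragment with 25 μM [32P/33P]ATP at pH 7.4, 30° C, for 60 or 75 minutes under initial-rate conditions. Filter-captured radioactivity is read by phosphorimager; apparent Ki from competitive-inhibition fits.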

Assay [2] relates to HCT-116 cell line. Nature of the assay: Inhibition of cell growth, tetrazolium salt (MTT) assay. It is filed as cell-based. The note with it: Homo sapiens, MTT; for inhibition at 0.175 µM: HCT-116, HCT-116 cells, compound at 0.175 uM; for IC50: HCT-116, 120 h, first HCT-116 column (c4), three to five days, read-out: HCT-116 IC50. The method, boiled down: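 Growth inhibition by MTT reduction at 540 nm (0.2 mg/mL, 4 h at 37° C, formazan dissolved in DMSO), normalized to cells given only 0.5% v/v DMSO. HCT-116 cultures in McCoy's 5A were dosed 4 h post-plating and kept three to five days at 37° C, 5% CO2.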

Counter-ions that a name gives are not always drawn.

Take `CC1CCN(CCCS(=O)(=O)N2CCC(Nc3nc(N)c(C(=O)c4c(F)cccc4F)s3)CC2)CC1` [Example V102]: the inhibition at 0.05 µM in assay [1] stood at 80%. Besides, the inhibition at 0.175 µM in assay [2] amounted to 89%.
The matching figures for `C=CCN(C)CCCS(=O)(=O)N1CCC(Nc2nc(N)c(C(=O)c3c(F)cccc3F)s2)CC1` [Example V135]: 78% and 82%.
For `Nc1nc(NC2CCN(S(=O)(=O)CCCN3CCN(CCO)CC3)CC2)sc1C(=O)c1c(F)cccc1F` [Example V34] the same measures were 67% and 16%.
With `Nc1nc(NC2CCN(S(=O)(=O)CCCNCCCO)CC2)sc1C(=O)c1c(F)cccc1F` [Example V4], in assay [1], the inhibition at 0.05 µM came to 75%. In addition, the inhibition at 0.175 µM in assay [2] was found to be 19%.
For the compound `Nc1nc(NC2CCN(S(=O)(=O)CCCNc3cc(O)c4ccccc4n3)CC2)sc1C(=O)c1c(F)cccc1F` [Example V140], in assay [1], the inhibition at 0.05 µM was 93%. In addition, the inhibition at 0.175 µM in assay [2] is 0%.
Regarding `CCC(O)CNCCCS(=O)(=O)N1CCC(Nc2nc(N)c(C(=O)c3c(F)cccc3F)s2)CC1` (centres unmarked) [Example V83], the inhibition at 0.05 µM in assay [1] turned out to be 79%. Further, the inhibition at 0.175 µM in assay [2] stood at 0%.
For `Nc1nc(NC2CCN(S(=O)(=O)CCCN[C@@H]3CCCC[C@@H]3CO)CC2)sc1C(=O)c1c(F)cccc1F` [Example V71] the same measures were 85% and 5%.
Turning to `CN(C)CCCNCCCS(=O)(=O)N1CCC(Nc2nc(N)c(C(=O)c3c(F)cccc3F)s2)CC1` [Example V15], the inhibition at 0.05 µM in assay [1] was determined as 62%. Also, the inhibition at 0.175 µM in assay [2] is 11%.
For `CC1(C)CCCN(CCCS(=O)(=O)N2CCC(Nc3nc(N)c(C(=O)c4c(F)cccc4F)s3)CC2)C1` [Example V46], the inhibition at 0.05 µM in assay [1] was found to be 77%. The inhibition at 0.175 µM in assay [2] worked out at 71%.
For `Nc1nc(NC2CCN(S(=O)(=O)CCCNC3CCOC3=O)CC2)sc1C(=O)c1c(F)cccc1F` (centres unmarked) [Example V18] the same measures were 22% and 0%.
For the compound `Nc1cccc(CNCCCS(=O)(=O)N2CCC(Nc3nc(N)c(C(=O)c4c(F)cccc4F)s3)CC2)c1` [Example V149], in assay [1], the inhibition at 0.05 µM was found to be 92%. In addition, the inhibition at 0.175 µM in assay [2] came out at 0%.
The matching figures for `NC(=O)C1CCN(CCCS(=O)(=O)N2CCC(Nc3nc(N)c(C(=O)c4c(F)cccc4F)s3)CC2)CC1` [Example V45]: 83% and 25%.
Consider `CC(C)NCCCS(=O)(=O)N1CCC(Nc2nc(N)c(C(=O)c3c(F)cccc3F)s2)CC1` [Example V93], for which, in assay [1], the inhibition at 0.05 µM came out at 84%. Also, the inhibition at 0.175 µM in assay [2] was found to be 11%.
Take `Cc1cnc(CNCCCS(=O)(=O)N2CCC(Nc3nc(N)c(C(=O)c4c(F)cccc4F)s3)CC2)cn1` [Example V43]: the inhibition at 0.05 µM in assay [1] came to 81%. Besides, in assay [2], the inhibition at 0.175 µM stood at 17%.
Regarding `Nc1nc(NC2CCN(S(=O)(=O)CCCNCc3cccs3)CC2)sc1C(=O)c1c(F)cccc1F` [Example V28], in assay [1], the inhibition at 0.05 µM was 91%. For the same compound, the inhibition at 0.175 µM in assay [2] was 33%.
For the compound `C#CCN(C)CCCS(=O)(=O)N1CCC(Nc2nc(N)c(C(=O)c3c(F)cccc3F)s2)CC1` [Example V65], the inhibition at 0.05 µM in assay [1] is 79%. In addition, the inhibition at 0.175 µM in assay [2] came to 30%.
Take `CN(CCCS(=O)(=O)N1CCC(Nc2nc(N)c(C(=O)c3c(F)cccc3F)s2)CC1)C1CCCCC1` [Example K61, (4-Amino-2-{1-[3-(cyclohexyl-methyl-amino)-propane-1-sulfonyl]-piperidin-4-ylamino}-thiazol-5-yl)-(2,6-difluoro-phenyl)-methanone. Acetic Acid Salt]: the Ki in assay [1] amounted to 8 nM. In assay [2], the 50% inhibitory concentration (IC50) turned out to be 170 nM.
As for `CN1CCCN(CCCS(=O)(=O)N2CCC(Nc3nc(N)c(C(=O)c4c(F)cccc4F)s3)CC2)CC1` [Example V30], the inhibition at 0.05 µM in assay [1] amounted to 78%. The inhibition at 0.175 µM in assay [2] came to 8%.
Take `Nc1nc(NC2CCN(S(=O)(=O)CCCN3Cc4ccccc4C3)CC2)sc1C(=O)c1c(F)cccc1F` [Example V155]: the inhibition at 0.05 µM in assay [1] was 87%. Further, the inhibition at 0.175 µM in assay [2] was determined as 11%.
With `Nc1nc(NC2CCN(S(=O)(=O)CCCNCC3CCCO3)CC2)sc1C(=O)c1c(F)cccc1F` (centres unmarked) [Example V20], the inhibition at 0.05 µM in assay [1] came to 81%. In addition, in assay [2], the inhibition at 0.175 µM came out at 9%.
As for `Nc1nc(NC2CCN(S(=O)(=O)CCCNC3CCOCC3)CC2)sc1C(=O)c1c(F)cccc1F` [Example V153], in assay [1], the inhibition at 0.05 µM amounted to 84%. Also, in assay [2], the inhibition at 0.175 µM was determined as 0%.
Turning to `Nc1nc(NC2CCN(S(=O)(=O)CCCN3CCOCC3)CC2)sc1C(=O)c1c(F)cccc1F` [Example V88], in assay [1], the inhibition at 0.05 µM was 77%. Also, in assay [2], the inhibition at 0.175 µM amounted to 17%.
Consider `Nc1nc(NC2CCN(S(=O)(=O)CCCNCC(O)CO)CC2)sc1C(=O)c1c(F)cccc1F` (centres unmarked) [Example V48], for which the inhibition at 0.05 µM in assay [1] was determined as 79%. Moreover, the inhibition at 0.175 µM in assay [2] is 7%.
Consider `CN(C)CCCCNCCCS(=O)(=O)N1CCC(Nc2nc(N)c(C(=O)c3c(F)cccc3F)s2)CC1` [Example V154], for which the inhibition at 0.05 µM in assay [1] is 82%. In addition, the inhibition at 0.175 µM in assay [2] was determined as 15%.
Turning to `C[C@H](NCCCS(=O)(=O)N1CCC(Nc2nc(N)c(C(=O)c3c(F)cccc3F)s2)CC1)C(N)=O` [Example V121], the inhibition at 0.05 µM in assay [1] was 77%. Also, in assay [2], the inhibition at 0.175 µM was found to be 4%.
`Nc1nc(NC2CCN(S(=O)(=O)CCCNC3CCCCC3)CC2)sc1C(=O)c1c(F)cccc1F` [Example K55, {4-Amino-2-[1-(3-cyclohexylamino-propane-1-sulfonyl)-piperidin-4-ylamino]-thiazol-5-yl}-(2,6-difluoro-phenyl)-methanone]: the Ki in assay [1] came out at 8 nM. In assay [2], the IC50 was determined as 680 nM.
With `CC(C)(C)NCCC(=O)N1CCC(Nc2nc(N)c(C(=O)c3c(F)cccc3F)s2)CC1` [Example U4, Acetic Acid Salt], the inhibition at 0.5 µM in assay [1] (@0.5 μM, printed in the CDK2 Ki column) stood at 40%. Moreover, the IC50 in assay [2] was above 5000 nM.
Take `CC(C)[C@H](CO)NCCCS(=O)(=O)N1CCC(Nc2nc(N)c(C(=O)c3c(F)cccc3F)s2)CC1` [Example V70]: the inhibition at 0.05 µM in assay [1] amounted to 89%. The inhibition at 0.175 µM in assay [2] is 2%.
For `Nc1nc(NC2CCN(S(=O)(=O)CCCNCC3(O)CCCCC3)CC2)sc1C(=O)c1c(F)cccc1F` [Example V144], the inhibition at 0.05 µM in assay [1] was determined as 87%. Further, in assay [2], the inhibition at 0.175 µM stood at 0%.
As to `Nc1nc(NC2CCN(S(=O)(=O)CCCN3CCNC(=O)C3)CC2)sc1C(=O)c1c(F)cccc1F` [Example V166], the inhibition at 0.05 µM in assay [1] turned out to be 72%. In assay [2], the inhibition at 0.175 µM stood at 3%.
Regarding `Cc1ccc(CNCCCS(=O)(=O)N2CCC(Nc3nc(N)c(C(=O)c4c(F)cccc4F)s3)CC2)o1` [Example V123], in assay [1], the inhibition at 0.05 µM is 76%. Further, in assay [2], the inhibition at 0.175 µM came to 5%.
The matching figures for `Nc1ccc(CNCCCS(=O)(=O)N2CCC(Nc3nc(N)c(C(=O)c4c(F)cccc4F)s3)CC2)cc1` [Example V47]: 85% and 13%.
As to `Nc1nc(NC2CCN(S(=O)(=O)CCCNc3ccc4ccccc4n3)CC2)sc1C(=O)c1c(F)cccc1F` [Example V110], the inhibition at 0.05 µM in assay [1] was determined as 67%. In assay [2], the inhibition at 0.175 µM was 2%.
Consider `Nc1nc(NC2CCN(S(=O)(=O)CCCNCCOCCO)CC2)sc1C(=O)c1c(F)cccc1F` [Example V11], for which, in assay [1], the inhibition at 0.05 µM worked out at 74%. The inhibition at 0.175 µM in assay [2] is 11%.
On to `Nc1nc(NC2CCN(S(=O)(=O)CCCNC3CCCCCCC3)CC2)sc1Cc1c(F)cccc1F` [Example V158], for which the inhibition at 0.05 µM in assay [1] is 90%. In addition, the inhibition at 0.175 µM in assay [2] worked out at 23%.
The matching figures for `Nc1nc(NC2CCN(S(=O)(=O)CCCNCc3cccc(F)c3)CC2)sc1C(=O)c1c(F)cccc1F` [Example V100]: 91% and 88%.
For `CSCCNCCCS(=O)(=O)N1CCC(Nc2nc(N)c(C(=O)c3c(F)cccc3F)s2)CC1` [Example V128] the same measures were 87% and 25%.
With `N#CCCNCCCS(=O)(=O)N1CCC(Nc2nc(N)c(C(=O)c3c(F)cccc3F)s2)CC1` [Example V92], the inhibition at 0.05 µM in assay [1] is 81%. In addition, in assay [2], the inhibition at 0.175 µM is 9%.
Turning to `Nc1nc(NC2CCN(S(=O)(=O)CCCNc3ccccn3)CC2)sc1C(=O)c1c(F)cccc1F` [Example K56, (4-Amino-2-{1-[3-(pyridin-2-ylamino)-propane-1-sulfonyl]-piperidin-4-ylamino}-thiazol-5-yl)-(2,6-difluoro-phenyl)-methanone. Trifluoroacetic Acid Salt], the Ki in assay [1] turned out to be 8 nM. Besides, the IC50 in assay [2] stood at 2640 nM.
Consider `CCN(CCCS(=O)(=O)N1CCC(Nc2nc(N)c(C(=O)c3c(F)cccc3F)s2)CC1)CCOC` [Example V130], for which, in assay [1], the inhibition at 0.05 µM came out at 75%. In addition, the inhibition at 0.175 µM in assay [2] was found to be 36%.
Regarding `Nc1nc(NC2CCN(S(=O)(=O)CCCNCCc3ccccn3)CC2)sc1C(=O)c1c(F)cccc1F` [Example V8], the inhibition at 0.05 µM in assay [1] amounted to 81%. Also, the inhibition at 0.175 µM in assay [2] was determined as 18%.
On to `CN(C)C1CCN(CCCS(=O)(=O)N2CCC(Nc3nc(N)c(C(=O)c4c(F)cccc4F)s3)CC2)CC1` [Example V22], for which, in assay [1], the inhibition at 0.05 µM stood at 67%. For the same compound, the inhibition at 0.175 µM in assay [2] came out at 13%.
For `CN(CCCS(=O)(=O)N1CCC(Nc2nc(N)c(C(=O)c3c(F)cccc3F)s2)CC1)Cc1ccccc1` [Example V13], the inhibition at 0.05 µM in assay [1] was found to be 90%. The inhibition at 0.175 µM in assay [2] was 79%.
